Tests used:
Drop dispersion = format: physicochemical; details: under binoculars (1.6×), FIG. 3
Experimental: The drop dispersion of Compositions 1 and 2 and that of elicitor Composition (MeJA) was determined under binoculars (1.6×) (FIG. 3).

[1] = test system: Brassica oleracea var. Italica Parthenon; details: in vivo
Experimental: (§1) In a growth chamber, seeds of the broccoli cultivar (Brassica oleracea var. Italica) Parthenon which grew for 30 days were germinated. Subsequently, they were allowed to grow in a greenhouse for 75 days until the inflorescences reached commercial size. In this case, foliar application of the treatments indicated below was carried out by spraying between 100 and 150 ml per plant: one at the time the flower bud appears and the following applications 5 and 10 days, respectively, after the first application.

[2] = test system: Brassica oleracea var. Italica Parthenon; assay: Greenhouse test: concentration of glucosinolates on leaves and inflorescences after foliar application; format: in vivo
Experimental: as §1
Control composition: consisting of a solution containing 0.2% by volume of ethanol and 99.8% by volume of water.
Surfactant composition 1 (Triton X-100): consisting of a solution containing 0.1% by volume of Triton X-100 surfactant and 99.9% by volume of water.
Surfactant composition 2 (MPP): consisting of a solution containing 0.1% by volume of the modified polysiloxane polyether surfactant and 99.9% by volume of water.
Elicitor composition (MeJA): consisting of a solution containing 0.0022% by volume of MeJA, 0.2% by volume of ethanol and 99.7978% by volume of water.
Composition 2 (MeJA+Triton X-100): consisting of a solution containing 0.0022% by volume of MeJA, 0.2% by volume of ethanol, 0.1% by volume of Triton X-100 and 99.70% by volume of water.
Composition 1 (MeJA+MPP): A solution was prepared containing 0.0022% by volume of MeJA (for a final concentration of 100 micromolar in the composition), 0.2% by volume of ethanol, 0.1% by volume of polysiloxane polyether and 99.7968% by volume of water.
Subsequently, the plants were harvested and the leaves and inflorescences were frozen in liquid nitrogen and immediately lyophilised to prevent the compounds of interest from degrading until it was time to determine the glucosinolates and metabolites of interest.
The analyses were carried out on the leaf and inflorescence at the time of collecting the commercial size. The method used for extracting glucosinolates was based on the method developed by the research group and currently in the public domain: Dominguez-Perles et al. (2010) Journal of Food Science 75, 383-392. The quantitative analysis was carried out by HPLC-DAD. The lyophilised and ground samples (100 mg) were extracted with 1 ml of 70% MeOH in a hot bath at 70° C. for 30 minutes, stirring every 5 minutes in a vortex, to optimise the extraction. The reaction was then stopped in an ice bath and the samples were centrifuged to precipitate the insoluble material, for 15 minutes, at 10,000 g and at 4° C. The supernatant was collected and the methanol was removed on a rotary evaporator with a thermostatically controlled bath at 38° C. The dry residue obtained was redissolved in ultra-pure water and filtered (00.22 μm of PVDF) for the subsequent analysis thereof.
Each sample (20 μl) was analysed in high-performance liquid chromatography (HPLC) equipped with a pump for binary eluent partitioning, an inline degasser, a photodiode detector autosampler (DAD). The compounds were separated in a C18 column measuring 250×4 mm and with a 0.4 um pore diameter, in reversed phase liquid chromatography (RP-HPLC) mode. The glucosinolates were identified using the methodology already described by the research group and publicly available for multipurpose analysis of intact glucosinolates (Martinez-Sánchez et al. 2006 Postharvest Biol. Technol. 42, 86-97; Dominguez-Perles et al. (2010) Journal of Food Sci. 75, 383-392), based on the retention times of the respective analytical peaks, the maximum absorption spectra thereof in the UV-Vis range and the comparison with commercially available external standards, sinigrin for aliphatic glucosinolates and glucobrassicin for indolic glucosinolates (Baenas et al. (2012) J. Agric. Food Chemistry, 60, 11409-11420). The detection was carried out at 227 nm and the concentration of glucosinolates was expressed in μmol/g of plant tissue dry weight. […]

Row | Compound | drop dispersion (Drop dispersion) | % of Commercial heads [1] [%] | Total GLS ([2]; INFLORESCENCE) [mg/g DW] | mg GBS/g DW ([2]; INFLORESCENCE) [mg/g DW] | mg GRA/g DW ([2]; INFLORESCENCE) [mg/g DW] | mg NGB/g DW ([2]; INFLORESCENCE) [mg/g DW] | Total GLS ([2]; LEAF) [mg/g DW] | mg GBS/g DW ([2]; LEAF) [mg/g DW] | mg GRA/g DW ([2]; LEAF) [mg/g DW] | mg NGB/g DW ([2]; LEAF) [mg/g DW]
1 | CC/C=C\CC1C(=O)CCC1CC(=O)OC (centres unmarked) [MeJA, methyl jasmonate] | no dispersion is observed | 100 | 4.97 | 2.05 | 1.70 | 1.22 | 1.75 | 0.71 | 0.35 | 0.69
2 | Triton X-100 | – | 81.1 | – | – | – | – | – | – | – | –

Source: patent US11696537B2, “Composition and method for increasing the content of glucosinolates in adult plants of the genus brassica” (CONSEJO SUPERIOR DE INVESTIGACIONES CIENTÍFICAS (CSIC), priority 2018, dated 2023)
